Read-outs that look alike come from different tables or passages of the source.
Columns and labels:
[1] = tested on: Ceratitis capitata (strain Benakeion); assay: survival of flies after insecticide treatment (FIG. 1); format: in vivo; conditions: 16 h after insecticide-treatment
[2] = tested on: Drosophila melanogaster (strain OR/R); assay: as above; format: in vivo; conditions: 16 h after insecticide-treatment
[3] = tested on: acetylcholinesterase (AchE); conditions: cited from earlier work
[4] = tested on: tobacco budworm Heliothis virescens; conditions: cited from earlier work
[5] = tested on: adult boll weevil Anthonomus granids Boheman; conditions: cited from earlier work
[6] = tested on: mixed function oxidase system; conditions: in vitro mixed function oxidase system; cited from earlier work
housefly = conditions: relative to imidacloprid; cited from earlier work
[7] = tested on: nicotinergic acetylcholine receptor (nAcR); conditions: relative to imidacloprid; cited from earlier work

| Structure (SMILES) | activity compared to Methamidophos [1] | sensitivity of flies ((%) survival) [1] | activity compared to Methamidophos [2] | sensitivity of flies ((%) survival) [2] | AchE inhibition [3] | activity in the tobacco budworm ([4]; acephate compared with methamidophos) | methamidophos observed in budworm larvae ([4]; within 2 hours of a topical acephate application) | fold more toxic than acephate [5] [fold] | activity in the tobacco budworm ([4]; in vivo) | conversion to imidacloprid [6] | potency in the housefly (housefly) | decrease of binding affinity to nAcR [7] [fold] |
| --- | --- | --- | --- | --- | --- | --- | --- | --- | --- | --- | --- | --- |
| COP(=O)(NC(C)=O)SC (stereo not drawn) [Acephate, O, S dimethyl acetylphosphoramidothicate] | less active | sensitive | less active | sensitive | not an AchE inhibitor | comparable activity | small amount of methamidophos | – | – | – | – | – |
| COP(N)(=O)SC (stereo not drawn) [Methamidophos, O, S-dimethyl phosphoramidothicate] | – | sensitive | – | sensitive | potent acetylcholinesterase (AchE) inhibitor | – | – | 75 | comparable activity | – | – | – |
| CN1CCN(Cc2ccc(Cl)nc2)C1=N[N+](=O)[O-] [N-Me-imidacloprid] | – | – | – | – | – | – | – | – | – | can be converted to imidacloprid | as potent as imidacloprid | 100 |

From patent US20040003429A1, “Pest control system” (priority 2000, published 2004)
